Experiments:
[1] = tested on: CD3 positive and CD3 negative cells; assay: Intracellular binding / penetration of pMO2-biotin into mononuclear cells (streptavidin-APC, FACS); type: cell-based, human
Method: The cells were incubated for 3 hours with pMO2-biotin or DMSO (the peptide diluent) as a control. In order to visualize the biotin-labeled pMO2, the cells were washed and stained with anti-CD3 antibodies and fluorescent streptavidin (streptavidin-APC), with or without prior fixation and permeabilization.

[2] = tested on: human lymphocytes and human CD3 positive lymphocytes; assay: Gliotoxin- or PMA-induced apoptosis of human mononuclear cells cultured overnight; FACS readout by DiOC6(3), 7AAD or cell size; type: cell-based; conditions: for protection of lymphocytes from gliotoxin-induced apoptosis: CD3+ cultures, DioC6(3) staining, pMO2 0.5 or 0.25 mg/ml (0.2 and 0.1 mM), FIG. 11; for protective (anti-apoptotic) effect in vitro: DiOC6(3), 7AAD and cell size, FIGS. 11-13
Method: The changes in the mitochondria membrane potential can be measured with 3,3′-Dihexyloxacarbocyanine iodide (Dioc6(3)). The binding to the mitochondria membrane is relative to its potential, the highest binding occurs in live and intact cells; the lowest in dead cells. The binding is monitored by flow cytometry (FL1 channel).
After overnight culture (see below), cells are washed in PBS and are treated with 40 nM DiOC6(3) for 15 min at 37° C. Cells are then washed in PBS, stained for lymphocytes surface markers such as CD3/CD4/CD8, with the appropriate antibodies, for 30 min at 4° C., washed again in PBS, resuspended in 0.5 ml PBS and analyzed using the FACS (flow cytometry).
7AAD is a nucleic acid dye that binds to […] DNA, selectively to GC regions of DNA. No binding is observed in live cells. The binding to apoptotic cells is proportional to the degree of apoptosis and membrane damage. The 7AAD fluorescence is detected in the far-red range of the spectrum (650 nm), in the FL3 channel.
After overnight culture (see below), cells are washed with PBS and are stained with monoclonal antibodies (CD3/4/8) for 30 min at 4° C., then washed again in PBS. Cells are then incubated with 7AAD (20 μg/ml) for 20 min at 4° C. in the dark and directly analyzed using the FACS (flow cytometry).
As a result of the process of apoptosis, cells undergo a cytoplasm shrinkage, which can be detected as a decrease in cell size as observed by the forward scatter position of the cells analyzed by FACS; the smaller lymphocytes are apoptotic, the larger are intact.
Mononuclear cells, freshly obtained from peripheral blood on a Ficoll-Hypaque gradient are washed in PBS and resuspended in RPMI supplemented with 10% fetal calf serum, glutamine, antibiotics, non-essential amino acids and sodium pyruvate, at a concentration of 4×10^6 cells per ml. Cells (0.5 ml per well) are incubated overnight, in 24 well plates, in the presence of Gliotoxin (0.1 μg/ml) or PMA (1 μg/ml) and with pMO2 or pSCR peptides (0.2, 0.1, 0.05 mM equivalent to 0.5, 0.25 and 0.125 mg/ml); as a control DMSO—the diluent of the peptides—was used at the appropriate dilution or with recombinant human CD14 (10 and 5 μg/ml). For the experiments aimed at neutralizing the human rCD14, monoclonal antibodies against CD14 or against actin (as a control) are added, together with the CD14, at a final concentration of 15 μg/ml.
After the overnight incubation, cells are processed for apoptosis assessment using the methods described above.
The effect of recombinant human CD14 on the induction of apoptosis in human lymphocytes and in human CD3 positive lymphocytes was tested in vitro. Human mononuclear cells obtained from healthy individuals were incubated with apoptosis inducers, gliotoxin or PMA. […] Namely, recombinant human CD14 protects lymphocytes from gliotoxin-induced apoptosis. […] Two parameters were measured: cell size (A), and mitochondrial membrane potential determined by Dioc6 (3) binding (B). In (A) there is a shift to the left (characteristic to apoptotic cells) under gliotoxin treatment compared to “medium”, and a reversal to normal size in the presence of rhCD14. In (B) low binding of Dioc6 (3) in the presence of gliotoxin (characteristic to apoptotic cells) can be observed, and the effect is reversed by rhCD14.
In addition, in order to investigate the spectrum of effective concentrations of rhCD14, mononuclear cells were cultured overnight in the presence of gliotoxin and varying concentrations of rhCD14, ranging from 10 to 0.6 μg/ml. Apoptosis of CD3+ cells was measured with Dioc6(3). As expected, cells cultured without gliotoxin included a very low number of apoptotic cells, about 0.3% of the cultured cells.
As explained above, the epitopes recognized by this monoclonal MO2 antibody were mapped using a random peptide library, and one of the specific peptides (amino acids 139-160 of CD14; pMO2) was synthesized. […]

[3] = tested on: intracellular expression of MO2 in lymphocytes; assay: Blocking of monocyte secretion of CD14 in vitro; intracellular MO2 staining in lymphocytes; type: cell-based; conditions: cell secretion blocked; staining with anti MO2 antibodies
Description: Further support for the concept that lymphocytes are capable of MO2 uptake is found in another experiment in which monocyte secretion of CD14 in vitro was blocked with Brefeldin A (a drug blocking the Golgi system thus inhibiting cell secretion).

[4] = 0.2 mM peptide, gliotoxin, FIGS. 14, 15

Molecule	penetration into lymphocytes ([1]; 3 hours incubation with pMO2-biotin, visualized only upon fixation and permeabilization, FIG. 16)	time of incubation for penetration into the majority of the lymphocytes ([1]; CD3 positive and CD3 negative cells in vitro, FIG. 17)	percent protection from apoptosis ([2]; 0.05 mM peptide, gliotoxin vs gliotoxin and control diluent, FIG. 14)	efficiency in protecting cells from apoptosis ([2]; 0.1 mM peptide, gliotoxin, FIG. 14)	efficiency in protecting cells from apoptosis [2, 4]	protection of lymphocytes from gliotoxin-induced apoptosis [2]	protective (anti-apoptotic) effect in vitro ([2]; gliotoxin)	change of intracellular expression of MO2 in lymphocytes [3]	effect on induced apoptosis of lymphocytes and of CD3 positive lymphocytes ([2]; apoptosis inducers gliotoxin or PMA, added during the incubation)	concentration at which inhibition of apoptosis is already effective ([2]; gliotoxin, overnight, rhCD14 titrated 10 to 0.6 μg/ml, CD3+ cells, Dioc6(3), FIG. 6)
ATGLALSSLRLRNVSWATGRSW [pMO2]	penetrates lymphocytes	≤ 10 min	about 45%	very high efficiency	very high efficiency	equally protect	retain the anti-apoptotic effect of the whole recombinant human CD14			
C[C@H]1CCC/C=C/[C@@H]2C[C@H](O)C[C@H]2[C@H](O)/C=C/C(=O)O1 [Brefeldin A]								substantial decrease		
ALGTSLARLSNRLWSVGTAWSR (listed as Homo sapiens) [pSCR, scrambled control peptide based on the same amino acids as pMO2, reference compound]					no protection	not	did not show any protective effect			
rhCD14: recombinant human soluble CD14 polypeptide, not anchored to the cell membrane (SEQ ID NO: 5) (protein, listed as Homo sapiens) MERASCLLLLLLPLVHVSATTPEPCELDDEDFRCVCNFSEPQPDWSEAFQCVSAVEVEIHAGGLNLEPFLKRVDADADPRQYADTVKALRVRRLTVGAAQVPAQLLVGALRVLAYSRLKELTLEDLKITGTMPPLPLEATGLALSSLRLRNVSWATGRSWLAELQQWLKPGLKVLSIAQAHSPAFSCEQVRAFPALTSLDLSDNPGLGERGLMAALCPHKFPAIQNLALRNTGMETPTGVCAALAAAGVQPHSLDLSHNSLRATVNPSAPRCMWSSALNSLNLSFAGLEQVPKGLPAKLRVLDLSCNRLNRAPQPDELPEVDNLTLDGNPFLVPGTALPHEGSMNSGVVPACARSTLSVGVSGTLVLLQGARGFA						equally protect			blocked significantly	1.25 µg/mL

From patent US20100331239A1, “CD14 AND PEPTIDES THEREOF FOR PROTECTION OF CELLS AGAINST CELL DEATH” (THE MEDICAL RESEARCH, INFRASTRUCTURE AND HEALTH SERVICES, priority 2008, published 2010)
